Assay results from patent US7314709B2, “Compositions and methods for detecting and quantifying COX-2 activity by lipoamino acid metabolism” (Vanderbilt University, priority 2002, dated 2008).
Where a chain is given by its changes, count along the chain named.

Tests used:
Format in all cases: biochemical, murine
mCOX-2 R120Q = molecular target: T1, mCOX-2 R120Q (Mus musculus, UniProt Q05769, R106Q); test: Initial O2 uptake rate with constriction site mutant R120Q; details: 200 nM enzyme; AA 100 μM, NAGly 200 μM
T1 construct: made in house; host or cells: Sf-9 insect cells
T1 sequence (Q05769 18-604 R106Q): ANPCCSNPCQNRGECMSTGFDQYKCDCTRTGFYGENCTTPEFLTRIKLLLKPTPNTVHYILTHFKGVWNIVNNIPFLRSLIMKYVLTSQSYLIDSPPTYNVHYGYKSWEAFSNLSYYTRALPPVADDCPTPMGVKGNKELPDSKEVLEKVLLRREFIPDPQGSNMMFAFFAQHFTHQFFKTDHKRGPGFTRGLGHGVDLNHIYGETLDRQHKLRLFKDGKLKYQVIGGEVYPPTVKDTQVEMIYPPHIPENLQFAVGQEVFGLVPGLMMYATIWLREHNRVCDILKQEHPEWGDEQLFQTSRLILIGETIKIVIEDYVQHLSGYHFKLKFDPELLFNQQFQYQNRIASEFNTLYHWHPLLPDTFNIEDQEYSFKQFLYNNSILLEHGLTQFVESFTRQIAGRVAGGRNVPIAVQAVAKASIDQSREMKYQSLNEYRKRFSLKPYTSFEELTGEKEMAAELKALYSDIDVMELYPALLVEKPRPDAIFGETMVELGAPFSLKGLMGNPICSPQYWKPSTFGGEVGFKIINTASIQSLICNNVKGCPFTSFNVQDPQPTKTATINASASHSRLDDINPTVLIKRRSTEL
Protocol: (§1) Enzymology: COX-1 was purified from ram seminal vesicles as previously described. Site-directed mutagenesis of COX-2 was performed as described previously. Recombinant COX-2 enzymes were expressed in Sf-9 insect cells and purified by ion-exchange chromatography and gel filtration as previously described. Apo-enzymes were reconstituted with hematin prior to activity assays.
(§2) COX activity was quantified as previously described. Initial reaction velocity data were obtained from the linear portion of the oxygen uptake curves. Oxygraph data were analyzed by nonlinear regression with Enzyme Kinetics 1.5 software (Trinity Software, Campton, N.H.).
(§3) At the bottom of the substrate (and inhibitor) binding site, there is a hydrogen bonding network comprised of residues Arg-120, Tyr-355, and Glu524, that form a constriction which is present in both COX isoforms. These residues contribute to the binding of the carboxylate in both AA and NSAIDs, and the glycerol moiety of 2-AG [12,23-27].

mCOX-2 Y385F = molecular target: T2, mCOX-2 Y385F (Mus musculus, UniProt Q05769, Y371F); test: O2 uptake with mCOX-2 site-directed mutant Y385F
T2 construct: made in house; host or cells: Sf-9 insect cells
T2 sequence (Q05769 18-604 Y371F): T1 sequence (Q05769 18-604 R106Q) with Q89R, Y354F
Protocol: as §1, §2
AA binds in the COX active site with the […] near Gly-533 [20,27].

mCOX-2 E524L = molecular target: T3, mCOX-2 E524L (Mus musculus, UniProt Q05769, E510L); test: Initial O2 uptake rate with constriction site mutant E524L; details: 200 nM enzyme; AA 100 μM, NAGly 200 μM
T3 construct: made in house; host or cells: Sf-9 insect cells
T3 sequence (Q05769 18-604 E510L): T1 sequence (Q05769 18-604 R106Q) with Q89R, E493L
Protocol: as §1, §2, §3

mCOX-2 R513H/V523I = molecular target: T4, mCOX-2 R513H/V523I (Mus musculus, UniProt Q05769, R499H/V509I); test: Initial O2 uptake rate with side pocket double mutant R513H/V523I; details: 200 nM enzyme; AA 100 μM, NAGly 200 μM
T4 construct: made in house; host or cells: Sf-9 insect cells
T4 sequence (Q05769 18-604 R499H/V509I): T1 sequence (Q05769 18-604 R106Q) with Q89R, R482H, V492I
Protocol: as §1, §2
Previous studies have identified residues in the side pocket of COX-2, especially Arg-513, as critical determinants of 2-AG oxygenation by COX-2 [13]. […] (FIG. 5).

## CCCCC/C=C\C/C=C\C/C=C\C/C=C\CCCC(=O)O [AA, arachidonic acid]
mCOX-2 R120Q
  reduction in initial rate of oxygenation compared with wild-type: < 3 fold
mCOX-2 Y385F
  substrate oxidation by Y385F: fails to oxidize
mCOX-2 E524L
  reduction in initial rate of oxygenation compared with wild-type: < 3 fold
mCOX-2 R513H/V523I
  effect of mutation on oxygenation rate: did not greatly affect
